ChEMBL document CHEMBL4229333, “Effects of rigidity on the selectivity of protein kinase inhibitors” (Eur J Med Chem, 2018)
The source made the active and inactive calls. The rule behind the calls is not given here.

Tests used:
[1] = molecular target: High affinity nerve growth factor receptor (Homo sapiens) (UniProt P04629); test: Inhibition of TRKA (unknown origin) at 1 uM by mobility shift microfluidics platform based assay relative to control
[2] = molecular target: Ribosomal protein S6 kinase alpha-5 (Homo sapiens) (UniProt O75582); test: Inhibition of MSK1 (unknown origin) at 1 uM by mobility shift microfluidics platform based assay relative to control
[3] = molecular target: Phosphatidylinositol 4,5-bisphosphate 3-kinase catalytic subunit beta isoform (Homo sapiens) (UniProt P42338); test: Inhibition of PI3K-beta (unknown origin) at 1 uM by mobility shift microfluidics platform based assay relative to control
[4] = molecular target: Serine/threonine-protein kinase PLK3 (Homo sapiens) (UniProt Q9H4B4); test: Inhibition of PLK3 (unknown origin) at 1 uM by mobility shift microfluidics platform based assay relative to control
[5] = molecular target: Tyrosine-protein kinase Fgr (Homo sapiens) (UniProt P09769); test: Inhibition of FGR (unknown origin) at 1 uM by mobility shift microfluidics platform based assay relative to control
[6] = molecular target: Mitogen-activated protein kinase 10 (Homo sapiens) (UniProt P53779); test: Inhibition of JNK3 (unknown origin) at 1 uM by mobility shift microfluidics platform based assay relative to control
[7] = molecular target: Serine/threonine-protein kinase pim-2 (Homo sapiens) (UniProt Q9P1W9); test: Inhibition of PIM2 (unknown origin) at 1 uM by mobility shift microfluidics platform based assay relative to control
[8] = molecular target: Serine/threonine-protein kinase Nek1 (Homo sapiens) (UniProt Q96PY6); test: Inhibition of NEK1 (unknown origin) at 1 uM by mobility shift microfluidics platform based assay relative to control
[9] = molecular target: T1, Tyrosine-protein kinase ABL1 (Homo sapiens, UniProt P00519); test: Inhibition of ABL (unknown origin) by phosphocellulose paper disk assay
[10] = molecular target: NUAK family SNF1-like kinase 1 (Homo sapiens) (UniProt O60285); test: Inhibition of ARK5 (unknown origin) at 1 uM by mobility shift microfluidics platform based assay relative to control
[11] = molecular target: Receptor tyrosine-protein kinase erbB-4 (Homo sapiens) (UniProt Q15303); test: Inhibition of ERB-B4 (unknown origin) at 1 uM by mobility shift microfluidics platform based assay relative to control
[12] = molecular target: Serine/threonine-protein kinase Nek9 (Homo sapiens) (UniProt Q8TD19); test: Inhibition of NEK9 (unknown origin) at 1 uM by mobility shift microfluidics platform based assay relative to control
[13] = molecular target: Serine/threonine-protein kinase PAK 5 (Homo sapiens) (UniProt Q9P286); test: Inhibition of PAK5 (unknown origin) at 1 uM by mobility shift microfluidics platform based assay relative to control
[14] = molecular target: T1, Tyrosine-protein kinase ABL1; test: Inhibition of ABL (unknown origin) at 30 nM by phosphocellulose paper disk assay
[15] = molecular target: Tyrosine-protein kinase FRK (Homo sapiens) (UniProt P42685); test: Inhibition of PTK5 (unknown origin) at 1 uM by mobility shift microfluidics platform based assay relative to control
[16] = molecular target: RAC-alpha serine/threonine-protein kinase (Homo sapiens) (UniProt P31749); test: Inhibition of AKT1 (unknown origin) at 1 uM by mobility shift microfluidics platform based assay relative to control
[17] = molecular target: Serine/threonine-protein kinase MRCK beta (Homo sapiens) (UniProt Q9Y5S2); test: Inhibition of MRCK-beta (unknown origin) at 1 uM by mobility shift microfluidics platform based assay relative to control
[18] = molecular target: Casein kinase I isoform gamma-3 (Homo sapiens) (UniProt Q9Y6M4); test: Inhibition of CK1-gamma3 (unknown origin) at 1 uM by mobility shift microfluidics platform based assay relative to control
Bcr/Abl fusion protein = Bcr/Abl fusion protein (Homo sapiens, UniProt P00519); test: Inhibition of BCR-ABL (unknown origin) expressed in mouse BA/F3 cells assessed as reduction in ABL phosphorylation at Y412 residue incubated for 3 hrs by immunoblotting assay; type: cell-based

Phosphatidylinositol 4,5-bisphosphate 3-kinase catalytic subunit beta isoform (Homo sapiens), sequence (P42338 whole entry, looked up, canonical isoform): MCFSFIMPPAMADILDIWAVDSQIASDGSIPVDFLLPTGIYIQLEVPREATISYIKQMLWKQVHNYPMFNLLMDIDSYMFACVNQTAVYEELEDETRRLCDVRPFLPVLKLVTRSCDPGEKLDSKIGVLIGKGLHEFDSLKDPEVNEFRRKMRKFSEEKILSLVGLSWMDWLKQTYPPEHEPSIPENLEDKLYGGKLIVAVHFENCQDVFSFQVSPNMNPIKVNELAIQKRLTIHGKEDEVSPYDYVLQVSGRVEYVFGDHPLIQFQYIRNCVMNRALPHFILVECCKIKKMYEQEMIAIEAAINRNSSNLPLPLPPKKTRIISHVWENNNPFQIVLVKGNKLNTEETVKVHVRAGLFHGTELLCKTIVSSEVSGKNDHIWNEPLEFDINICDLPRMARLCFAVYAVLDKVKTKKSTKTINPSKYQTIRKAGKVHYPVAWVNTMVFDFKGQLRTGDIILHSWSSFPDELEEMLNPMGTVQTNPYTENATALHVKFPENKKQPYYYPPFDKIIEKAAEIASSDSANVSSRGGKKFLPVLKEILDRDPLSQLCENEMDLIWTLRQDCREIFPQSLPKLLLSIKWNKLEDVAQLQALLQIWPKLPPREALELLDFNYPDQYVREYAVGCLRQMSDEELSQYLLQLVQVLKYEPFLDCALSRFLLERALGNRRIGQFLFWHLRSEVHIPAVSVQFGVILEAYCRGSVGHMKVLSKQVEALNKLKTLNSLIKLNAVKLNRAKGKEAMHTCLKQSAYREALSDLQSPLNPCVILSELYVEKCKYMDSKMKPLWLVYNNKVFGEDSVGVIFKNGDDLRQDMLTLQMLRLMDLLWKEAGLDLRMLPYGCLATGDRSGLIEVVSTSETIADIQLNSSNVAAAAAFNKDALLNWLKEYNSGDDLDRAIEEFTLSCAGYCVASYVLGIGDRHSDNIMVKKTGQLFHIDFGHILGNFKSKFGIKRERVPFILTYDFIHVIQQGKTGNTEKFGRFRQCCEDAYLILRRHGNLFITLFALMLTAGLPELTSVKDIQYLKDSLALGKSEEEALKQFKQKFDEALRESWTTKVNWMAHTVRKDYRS
Mitogen-activated protein kinase 10 (Homo sapiens), sequence (P53779 whole entry): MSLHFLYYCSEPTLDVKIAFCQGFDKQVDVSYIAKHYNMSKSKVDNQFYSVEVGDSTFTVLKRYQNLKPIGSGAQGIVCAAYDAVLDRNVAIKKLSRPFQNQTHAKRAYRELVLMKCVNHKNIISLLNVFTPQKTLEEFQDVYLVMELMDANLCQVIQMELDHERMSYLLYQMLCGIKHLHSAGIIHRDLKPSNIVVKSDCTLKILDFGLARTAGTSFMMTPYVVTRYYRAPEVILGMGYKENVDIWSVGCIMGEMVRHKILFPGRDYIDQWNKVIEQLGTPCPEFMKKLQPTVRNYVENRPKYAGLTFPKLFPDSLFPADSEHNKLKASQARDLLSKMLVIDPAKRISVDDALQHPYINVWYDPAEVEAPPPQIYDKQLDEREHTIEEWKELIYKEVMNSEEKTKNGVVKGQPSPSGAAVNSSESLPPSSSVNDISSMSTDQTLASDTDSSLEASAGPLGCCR
Receptor tyrosine-protein kinase erbB-4 (Homo sapiens), sequence (Q15303 whole entry): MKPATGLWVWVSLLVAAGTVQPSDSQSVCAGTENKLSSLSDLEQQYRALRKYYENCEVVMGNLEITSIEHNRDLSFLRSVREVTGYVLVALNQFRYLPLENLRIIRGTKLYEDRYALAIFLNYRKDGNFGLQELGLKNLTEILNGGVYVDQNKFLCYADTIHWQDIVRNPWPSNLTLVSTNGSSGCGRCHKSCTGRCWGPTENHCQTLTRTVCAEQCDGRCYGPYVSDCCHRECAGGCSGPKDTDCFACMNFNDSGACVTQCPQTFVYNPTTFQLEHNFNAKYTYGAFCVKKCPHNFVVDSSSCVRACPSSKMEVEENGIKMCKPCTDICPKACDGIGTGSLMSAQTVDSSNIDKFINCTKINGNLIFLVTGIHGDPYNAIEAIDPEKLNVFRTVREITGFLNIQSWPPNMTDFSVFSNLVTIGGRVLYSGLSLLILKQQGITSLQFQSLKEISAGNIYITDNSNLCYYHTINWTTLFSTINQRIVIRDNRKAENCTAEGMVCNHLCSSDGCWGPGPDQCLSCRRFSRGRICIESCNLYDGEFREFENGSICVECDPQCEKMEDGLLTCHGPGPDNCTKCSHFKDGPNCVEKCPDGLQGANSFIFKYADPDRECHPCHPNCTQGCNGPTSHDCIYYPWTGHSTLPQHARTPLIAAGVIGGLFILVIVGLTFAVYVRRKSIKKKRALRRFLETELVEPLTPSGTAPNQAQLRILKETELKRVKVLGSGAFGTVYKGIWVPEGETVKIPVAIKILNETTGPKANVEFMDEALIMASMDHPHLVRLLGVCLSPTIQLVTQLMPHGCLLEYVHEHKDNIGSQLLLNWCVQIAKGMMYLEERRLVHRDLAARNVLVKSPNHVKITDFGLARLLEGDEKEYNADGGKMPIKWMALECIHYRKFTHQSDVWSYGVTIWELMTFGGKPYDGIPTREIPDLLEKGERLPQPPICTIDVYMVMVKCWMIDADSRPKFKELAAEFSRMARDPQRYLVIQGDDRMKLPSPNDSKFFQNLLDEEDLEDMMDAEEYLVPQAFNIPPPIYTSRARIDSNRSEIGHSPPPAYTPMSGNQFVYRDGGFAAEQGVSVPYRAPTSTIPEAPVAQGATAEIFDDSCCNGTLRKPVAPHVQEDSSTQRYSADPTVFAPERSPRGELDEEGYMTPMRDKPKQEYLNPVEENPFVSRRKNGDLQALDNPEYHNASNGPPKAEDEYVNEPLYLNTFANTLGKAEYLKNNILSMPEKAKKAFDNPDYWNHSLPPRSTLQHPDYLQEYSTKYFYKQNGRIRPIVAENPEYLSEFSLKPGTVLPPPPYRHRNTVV
Tyrosine-protein kinase Fgr (Homo sapiens), sequence (P09769 2-529 limits assumed): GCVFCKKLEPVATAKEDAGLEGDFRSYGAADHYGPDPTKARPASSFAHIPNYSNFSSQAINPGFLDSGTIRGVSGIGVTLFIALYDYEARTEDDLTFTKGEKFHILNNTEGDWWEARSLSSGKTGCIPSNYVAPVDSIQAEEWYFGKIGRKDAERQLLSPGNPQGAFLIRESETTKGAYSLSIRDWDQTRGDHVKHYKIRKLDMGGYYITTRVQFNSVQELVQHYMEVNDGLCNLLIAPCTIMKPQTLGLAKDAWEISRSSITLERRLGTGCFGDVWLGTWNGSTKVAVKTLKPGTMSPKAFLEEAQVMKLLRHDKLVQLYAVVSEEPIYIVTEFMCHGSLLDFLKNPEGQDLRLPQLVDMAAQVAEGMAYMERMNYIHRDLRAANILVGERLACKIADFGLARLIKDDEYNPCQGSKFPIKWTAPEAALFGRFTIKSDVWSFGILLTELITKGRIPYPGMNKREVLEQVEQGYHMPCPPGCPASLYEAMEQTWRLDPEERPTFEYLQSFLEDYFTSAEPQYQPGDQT
Serine/threonine-protein kinase Nek1 (Homo sapiens), sequence (Q96PY6 whole entry): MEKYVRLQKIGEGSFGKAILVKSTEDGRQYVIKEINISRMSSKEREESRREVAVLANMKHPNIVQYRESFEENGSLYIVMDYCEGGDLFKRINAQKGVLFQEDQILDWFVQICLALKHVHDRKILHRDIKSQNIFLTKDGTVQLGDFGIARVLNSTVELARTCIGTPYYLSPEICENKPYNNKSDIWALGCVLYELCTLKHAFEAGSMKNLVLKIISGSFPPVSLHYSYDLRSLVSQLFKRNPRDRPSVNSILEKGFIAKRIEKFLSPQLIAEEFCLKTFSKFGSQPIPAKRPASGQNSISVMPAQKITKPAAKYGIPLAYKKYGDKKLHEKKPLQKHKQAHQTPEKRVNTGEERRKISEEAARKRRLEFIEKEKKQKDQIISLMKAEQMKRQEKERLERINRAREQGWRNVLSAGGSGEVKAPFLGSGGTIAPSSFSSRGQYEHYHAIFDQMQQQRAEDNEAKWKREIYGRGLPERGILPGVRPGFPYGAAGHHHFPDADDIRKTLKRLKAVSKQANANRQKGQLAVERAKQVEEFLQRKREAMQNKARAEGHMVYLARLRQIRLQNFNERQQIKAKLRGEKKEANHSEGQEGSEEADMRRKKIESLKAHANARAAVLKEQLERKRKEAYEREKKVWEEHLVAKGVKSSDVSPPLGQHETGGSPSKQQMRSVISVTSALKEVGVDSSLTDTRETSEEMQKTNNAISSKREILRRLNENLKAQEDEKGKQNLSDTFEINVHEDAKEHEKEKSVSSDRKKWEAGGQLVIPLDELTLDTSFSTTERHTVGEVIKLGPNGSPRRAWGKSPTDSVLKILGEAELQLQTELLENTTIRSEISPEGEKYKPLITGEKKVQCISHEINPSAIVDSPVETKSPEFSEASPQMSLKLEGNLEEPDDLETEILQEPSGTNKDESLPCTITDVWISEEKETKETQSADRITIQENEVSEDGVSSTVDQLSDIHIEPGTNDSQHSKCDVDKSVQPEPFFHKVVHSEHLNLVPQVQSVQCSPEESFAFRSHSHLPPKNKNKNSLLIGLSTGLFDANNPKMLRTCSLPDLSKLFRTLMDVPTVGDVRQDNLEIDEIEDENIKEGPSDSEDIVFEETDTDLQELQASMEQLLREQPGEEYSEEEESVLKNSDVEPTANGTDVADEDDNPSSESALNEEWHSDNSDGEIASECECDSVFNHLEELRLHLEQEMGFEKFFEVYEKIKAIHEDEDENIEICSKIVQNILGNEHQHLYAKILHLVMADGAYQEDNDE
Serine/threonine-protein kinase pim-2 (Homo sapiens), sequence (Q9P1W9 whole entry, looked up): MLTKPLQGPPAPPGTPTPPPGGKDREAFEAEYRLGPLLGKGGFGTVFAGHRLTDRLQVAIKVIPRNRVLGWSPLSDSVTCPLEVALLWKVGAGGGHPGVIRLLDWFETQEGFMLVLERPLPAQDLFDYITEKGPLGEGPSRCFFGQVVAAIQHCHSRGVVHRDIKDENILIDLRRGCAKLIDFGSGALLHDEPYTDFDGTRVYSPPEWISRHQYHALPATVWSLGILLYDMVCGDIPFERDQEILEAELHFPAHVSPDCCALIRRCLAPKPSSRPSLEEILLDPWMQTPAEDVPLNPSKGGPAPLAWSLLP

| SMILES | inhibition [1] [%] | inhibition [2] [%] | inhibition [3] [%] | inhibition [4] [%] | inhibition [5] [%] | inhibition [6] [%] | inhibition [7] [%] | inhibition [8] [%] | IC50 [9] [nM] | inhibition [10] [%] | inhibition [11] [%] | inhibition [12] [%] | inhibition [13] [%] | inhibition [14] | inhibition [15] [%] | inhibition [16] [%] | inhibition [17] [%] | inhibition [18] [%] | IC50 (Bcr/Abl fusion protein) [nM] |
| --- | --- | --- | --- | --- | --- | --- | --- | --- | --- | --- | --- | --- | --- | --- | --- | --- | --- | --- | --- |
| CC(C)n1nc(C#Cc2cccc3cc(-c4cccc(C(F)(F)F)c4)ncc23)c2c(N)ncnc21 | 2 | 5 | -5 | 0 | 71 | 5 | 0 | -5 | 3 | 1 | 4 | -1 | -4 | inactive | 18 | 0 | 1 | – | – |
| CC(C)n1nc(C#Cc2cccc(NC(=O)c3cccc(C(F)(F)F)c3)c2)c2c(N)ncnc21 | 22 | – | 1 | 3 | 99 | -8 | -1 | -1 | – | 14 | 88 | 2 | 0 | – | 95 | -1 | -1 | 2 | 7.5 |
